For this series, the system named is CCRIS mutagenicity, Ames/micronucleus/aberration tests. Kind of series: CCRIS mutagenicity studies.
The mark [1] stands for this setting: Test System: AMES SALMONELLA TYPHIMURIUM, Strain/Indicator: TA98, Metabolic Activation: NONE, Method: PREINCUBATION
Setting [2] is: Test System: AMES SALMONELLA TYPHIMURIUM, Strain/Indicator: TA100, Metabolic Activation: NONE, Method: PREINCUBATION
[3] abbreviates: Test System: AMES SALMONELLA TYPHIMURIUM, Strain/Indicator: TA1535, Metabolic Activation: NONE, Method: PREINCUBATION
Setting [4] is: Test System: AMES SALMONELLA TYPHIMURIUM, Strain/Indicator: TA1537, Metabolic Activation: NONE, Method: PREINCUBATION
Setting [5] is: Test System: AMES SALMONELLA TYPHIMURIUM, Strain/Indicator: TA100, Metabolic Activation: NONE, Method: STANDARD PLATE.

The source of these data is PubChem BioAssay AID1259407 (Chemical Carcinogenesis Research Information System (CCRIS), 2018).

Active and inactive are the calls of the source. No rule for the calls is given here.

Take `O=C1CCCCCCCCCCCCCCO1`: the mutagenic call reads like this: under setting [1], “inactive; negative”; (Test System: AMES SALMONELLA TYPHIMURIUM, Strain/Indicator: TA98, Metabolic Activation: RAT LIVER S-9, PHENOBARBITAL AND BETA-NAPHTHOFLAVONE, Method: PREINCUBATION) “inactive; negative”; under setting [2], “inactive; negative”; (Test System: AMES SALMONELLA TYPHIMURIUM, Strain/Indicator: TA100, Metabolic Activation: RAT LIVER S-9, PHENOBARBITAL AND BETA-NAPHTHOFLAVONE, Method: PREINCUBATION) “inactive; negative”; (Test System: AMES SALMONELLA TYPHIMURIUM, Strain/Indicator: TA102, Metabolic Activation: NONE, Method: PREINCUBATION) “inactive; negative”; (Test System: AMES SALMONELLA TYPHIMURIUM, Strain/Indicator: TA102, Metabolic Activation: RAT LIVER S-9, PHENOBARBITAL AND BETA-NAPHTHOFLAVONE, Method: PREINCUBATION) “inactive; negative”. Further, the mutagenic call is “inactive; negative” (Test System: AMES SALMONELLA TYPHIMURIUM, Strain/Indicator: TA104, Metabolic Activation: NONE, Method: PREINCUBATION); “inactive; negative” (Test System: AMES SALMONELLA TYPHIMURIUM, Strain/Indicator: TA104, Metabolic Activation: RAT LIVER S-9, PHENOBARBITAL AND BETA-NAPHTHOFLAVONE, Method: PREINCUBATION); “inactive; negative” under setting [3]; “inactive; negative” (Test System: AMES SALMONELLA TYPHIMURIUM, Strain/Indicator: TA1535, Metabolic Activation: RAT LIVER S-9, PHENOBARBITAL AND BETA-NAPHTHOFLAVONE, Method: PREINCUBATION); “inactive; negative” under setting [4]; “inactive; negative” (Test System: AMES SALMONELLA TYPHIMURIUM, Strain/Indicator: TA1537, Metabolic Activation: RAT LIVER S-9, PHENOBARBITAL AND BETA-NAPHTHOFLAVONE, Method: PREINCUBATION). The mutagenic call is, setting by setting: (Test System: E.COLI, Strain/Indicator: WP2UVRA/PKM101, Metabolic Activation: NONE, Method: PREINCUBATION) “inactive; negative”; (Test System: E.COLI, Strain/Indicator: WP2UVRA/PKM101, Metabolic Activation: RAT LIVER S-9, PHENOBARBITAL AND BETA-NAPHTHOFLAVONE, Method: PREINCUBATION) “inactive; negative”; (Test System: E.COLI, Strain/Indicator: WP2UVRA, Metabolic Activation: NONE, Method: PREINCUBATION) “inactive; negative”; (Test System: E.COLI, Strain/Indicator: WP2UVRA, Metabolic Activation: RAT LIVER S-9, PHENOBARBITAL AND BETA-NAPHTHOFLAVONE, Method: PREINCUBATION) “inactive; negative”.
For `Cn1cnc(-c2ccccc2)c1[N+](=O)[O-]`, the mutagenic call under setting [5] is “active; positive”.
With `CCc1ccccc1N`, the mutagenic call was “inactive; negative” under setting [1]; “inactive; negative” (Test System: AMES SALMONELLA TYPHIMURIUM, Strain/Indicator: TA98, Metabolic Activation: S-9, Method: PREINCUBATION); “inactive; negative” under setting [2]; “inactive; negative” (Test System: AMES SALMONELLA TYPHIMURIUM, Strain/Indicator: TA100, Metabolic Activation: S-9, Method: PREINCUBATION); “inactive; negative” (Test System: UDS RODENT HEPATOCYTES, Strain/Indicator: THY INCORP (NON-S-PHASE), Metabolic Activation: NONE, Method: AUTORADIOGRAPHY).
In the case of `C1=CC2OC2C=C1` (stereo not given), the mutagenic call (Test System: AMES SALMONELLA TYPHIMURIUM, Strain/Indicator: TA98, Metabolic Activation: NONE, Method: STANDARD PLATE) was “inactive; negative”; the mutagenic call (Test System: AMES SALMONELLA TYPHIMURIUM, Strain/Indicator: TA98, Metabolic Activation: RAT, LIVER, S-9, PHENOBARBITAL, Method: STANDARD PLATE) is “inactive; negative”; the mutagenic call under setting [2] was “inactive; negative”; the mutagenic call under setting [5] was “inactive; negative”; the mutagenic call (Test System: AMES SALMONELLA TYPHIMURIUM, Strain/Indicator: TA100, Metabolic Activation: RAT, LIVER, S-9, PHENOBARBITAL, Method: PREINCUBATION) was “active; positive”; the mutagenic call (Test System: AMES SALMONELLA TYPHIMURIUM, Strain/Indicator: TA100, Metabolic Activation: RAT, LIVER, S-9, PHENOBARBITAL, Method: STANDARD PLATE) is “active; positive”. The mutagenic call is, setting by setting: (Test System: AMES SALMONELLA TYPHIMURIUM, Strain/Indicator: TA1535, Metabolic Activation: NONE, Method: STANDARD PLATE) “inactive; negative”; (Test System: AMES SALMONELLA TYPHIMURIUM, Strain/Indicator: TM677/8-AZAGUANINE, Metabolic Activation: NONE, Method: PREINCUBATION) “inactive; negative”; (Test System: AMES SALMONELLA TYPHIMURIUM, Strain/Indicator: TM677/8-AZAGUANINE, Metabolic Activation: NONE, Method: STANDARD PLATE) “inactive; negative”; (Test System: AMES SALMONELLA TYPHIMURIUM, Strain/Indicator: TM677, Metabolic Activation: RAT, LIVER, S-9, PHENOBARBITAL, Method: PREINCUBATION) “active; positive”.
With `O=C1c2ccccc2-c2ccc3c4c(ccc1c24)-c1ccccc1C3=O`, the mutagenic call (Test System: AMES SALMONELLA TYPHIMURIUM, Strain/Indicator: TA98, Metabolic Activation: HAMSTER, LIVER, S-9, AROCLOR 1254 (10%), Method: PREINCUBATION) is “inactive; negative”; the mutagenic call under setting [1] is “inactive; negative”; the mutagenic call (Test System: AMES SALMONELLA TYPHIMURIUM, Strain/Indicator: TA98, Metabolic Activation: RAT, LIVER, S-9, AROCLOR 1254 (10%), Method: PREINCUBATION) was “inactive; negative”; the mutagenic call (Test System: AMES SALMONELLA TYPHIMURIUM, Strain/Indicator: TA100, Metabolic Activation: HAMSTER, LIVER, S-9, AROCLOR 1254 (10%), Method: PREINCUBATION) was “inactive; negative”; the mutagenic call under setting [2] is “inactive; negative”; the mutagenic call (Test System: AMES SALMONELLA TYPHIMURIUM, Strain/Indicator: TA100, Metabolic Activation: RAT, LIVER, S-9, AROCLOR 1254 (10%), Method: PREINCUBATION) is “inactive; negative”. Further, the mutagenic call by setting is: (Test System: AMES SALMONELLA TYPHIMURIUM, Strain/Indicator: TA1535, Metabolic Activation: HAMSTER, LIVER, S-9, AROCLOR 1254 (10%), Method: PREINCUBATION) “inactive; negative”; under setting [3], “inactive; negative”; (Test System: AMES SALMONELLA TYPHIMURIUM, Strain/Indicator: TA1535, Metabolic Activation: RAT, LIVER, S-9, AROCLOR 1254 (10%), Method: PREINCUBATION) “inactive; negative”; (Test System: AMES SALMONELLA TYPHIMURIUM, Strain/Indicator: TA1537, Metabolic Activation: HAMSTER, LIVER, S-9, AROCLOR 1254 (10%), Method: PREINCUBATION) “inactive; negative”; under setting [4], “inactive; negative”; (Test System: AMES SALMONELLA TYPHIMURIUM, Strain/Indicator: TA1537, Metabolic Activation: RAT, LIVER, S-9, AROCLOR 1254 (10%), Method: PREINCUBATION) “inactive; negative”. Where the note is “Test System: MOUSE LYMPHOMA, Strain/Indicator: L5178Y (TK+/TK-), Metabolic Activation: RAT, LIVER, S-9, AROCLOR, Method: SUSPENSION/PLATE”, the mutagenic call is “active; positive”.
